A short description of data set [1]: Reducing power, potassium ferricyanide reduction method. The following applies: four concentrations, 20–80 μg/mL; absorbance at 700 nm; references BHT and quercetin (Figure 3). The procedure:
The reductive potential of the compounds and standard was determined according to a previously described method. An aliquot of the sample or standard (1.0 mL) at various concentrations (20–80 μg/mL in DMSO) was mixed with phosphate buffer (0.2 mol L^−^1, pH 6.6, 1.25 mL) and 1% potassium ferricyanide (1.25 mL). The mixture was incubated at 50 °C for 20 min. After cooling, 1.25 mL of 10% trichloroacetic acid was added and the mixture incubated at 50 °C for 10 min. 1.25 mL of this solution was mixed with distilled water (1.25 mL) and 0.1% iron(III) chloride (0.25 mL) and the absorbance measured at 700 nm using an appropriate blank. Assays were carried out in triplicate.

In data set [2] the target is T1, AChE from Electrophorus electricus (Electrophorus electricus, UniProt O42275).
T1 construct: purchased Sigma-Aldrich Chemical Company, St. Louis, MO, USA
T1 sequence (O42275 24-633): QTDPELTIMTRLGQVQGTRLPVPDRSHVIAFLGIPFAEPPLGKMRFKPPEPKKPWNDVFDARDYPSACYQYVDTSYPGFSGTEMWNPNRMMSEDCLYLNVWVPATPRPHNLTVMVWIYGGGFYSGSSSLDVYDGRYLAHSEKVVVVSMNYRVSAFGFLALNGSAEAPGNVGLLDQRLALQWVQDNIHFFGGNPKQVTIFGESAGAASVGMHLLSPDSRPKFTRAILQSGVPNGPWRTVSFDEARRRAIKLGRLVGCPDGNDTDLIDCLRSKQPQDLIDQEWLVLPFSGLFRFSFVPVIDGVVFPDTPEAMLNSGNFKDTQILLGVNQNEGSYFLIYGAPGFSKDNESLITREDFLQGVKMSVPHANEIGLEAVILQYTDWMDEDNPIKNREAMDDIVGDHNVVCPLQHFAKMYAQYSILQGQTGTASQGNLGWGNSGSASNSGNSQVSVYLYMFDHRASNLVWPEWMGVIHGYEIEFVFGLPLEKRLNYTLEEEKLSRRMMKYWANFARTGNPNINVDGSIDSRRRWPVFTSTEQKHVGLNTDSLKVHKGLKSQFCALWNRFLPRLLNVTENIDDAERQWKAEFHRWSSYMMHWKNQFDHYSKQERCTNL
As to the kind of experiment: biochemical. Type of data set: biochemical. The settings on record: for IC50: ± SD, n = 4, read-out: Anti-AChE IC50. The procedure:
The AChE activity was evaluated using the method described by Ellman et al. and Ingkaninan et al., modified. Briefly, 10 μL of 0.25 U/mL AChE from Electrophorus electricus (Sigma-Aldrich® Chemical Company, St. Louis, MO, USA) was added to the wells containing sample in different concentrations, and allowed to incubate for 5 min. Reaction was started by the addition 5 μL of 3 mM 5,5'-dithiobis[2-nitrobenzoic acid] (DTNB,) and 5 μL of 75 mM acetylthiocholine iodide (ATCI; Fluka Chemicals, Buchs, Switzerland). The absorbance was then read at 415 nm every 2.5 min for 7.5 min in a Bio Rad Model 680 Microplate Reader (Bio-Rad Laboratories, Inc., Hercules, CA, USA). Percentage of enzymatic inhibition was calculated relatively to the control without inhibitor. Every experiment was done in quadruplicate. […] PROGRAM Version 1.4 was used.

Data set [3] can be described thus: DPPH radical scavenging assay. The settings on record: for EC50: concentration of the compound to reduce the DPPH radical concentration to 50%, ± SD; for Radical Scavenging Activity AE (antiradical efficiency): AE = 1/(EC50 × TEC50), TEC50 = time to reach the steady state for the EC50. As for the experimental part:
Antioxidant activity was assayed by the DPPH (1,1-diphenyl-2-picrylhydrazyl) radical scavenging assay using the Blois method modified. […] In each assay, a control was prepared, in which the compound or standard (quercetin and BHT) was substituted by the same amount of solvent. The mixture was shaken vigorously and left to stand for 30 min in the dark, and the absorbance was then measured at 517 nm. The capability to scavenge the DPPH radical was calculated using the following equation: DPPH scavenging activity (%) = [(Ac − As)/Ac] × 100(1) where, Ac is the absorbance of the control and As is the absorbance of the compound or standard. All assays were carried out in triplicate and results expressed as EC50, i.e., as the concentration yielding 50% scavenging of DPPH, calculated by interpolation from the % vs. concentration curve.
In general terms: DPPH is a stable violet radical that fades when it is reduced.

A short description of data set [4]: Maximum soluble concentration in the DPPH assay. The following applies: ethanol (ethanolic solution of the DPPH assay), ethanolic solutions, read-out: maximum concentration at which the compound is soluble. Format: physicochemical.
Description: Antioxidant activity was assayed by the DPPH (1,1-diphenyl-2-picrylhydrazyl) radical scavenging assay using the Blois method modified [24]. Briefly, different volumes of the ethanolic solutions of each compound or standard (1–100 µM) were added fixed volume of DPPH ethanolic solution (400 µL of the solution 0.6 mM) and solvent (ethanol) to obtain, in each case, a fixed total volume. In each assay, a control was prepared, in which the compound or standard (quercetin and BHT) was substituted by the same amount of solvent. The mixture was shaken vigorously and left to stand for 30 min in the dark, and the absorbance was then measured at 517 nm. The capability to scavenge the DPPH radical was calculated using the following equation: DPPH scavenging activity (%) = [(Ac − As)/Ac] × 100(1) where, Ac is the absorbance of the control and As is the absorbance of the compound or standard. All assays were carried out in triplicate and results expressed as EC50, i.e., as the concentration yielding 50% scavenging of DPPH, calculated by interpolation from the % vs. concentration curve.

The values that follow come from PMC6270872, “Xanthenedione Derivatives, New Promising Antioxidant and Acetylcholinesterase Inhibitor Agents” (Molecules, 2014).

In brackets after ≈: the same amount, converted by molar mass. Entries after “also recorded” stand apart in the source; their conditions may differ. Some results are limits rather than exact numbers.

The term IC50 denotes the concentration that gives 50% inhibition. For the molecule `O=C1CC(c2ccccc2)C(=Cc2ccccc2)c2oc3cccc(O)c3c(=O)c21` (centres unmarked) [Compound 5a, (E)-3-Aryl-4-benzylidene-8-hydroxy-3,4-dihydro-1H-xanthene-1,9(2H)-dione], the “Reducing power (reduction of ferric ion)” value in data set [1] is on record as “did not significantly reduce ferric ion”. Moreover, the IC50 in data set [2] was above 381 µM.

Turning to `Cc1ccc(/C=C2/c3oc4cccc(O)c4c(=O)c3C(=O)CC2c2ccc(C)cc2)cc1` (centres unmarked) [Compound 5b, (E)-8-Hydroxy-4-(4-methylbenzylidene)-3-(4-methylphenyl)-3,4-dihydro-1H-xanthene-1,9(2H)-dione], the half-maximal inhibitory concentration (IC50) in data set [2] is above 355 µM.

As usually defined, the EC50 is the concentration that produces a half-maximal response. A high value points to a need for much substance. `O=C1CC(c2ccc(O)cc2)C(=Cc2ccc(O)cc2)c2oc3cccc(O)c3c(=O)c21` (centres unmarked) [Compound 5c] returned a DPPH quenched in data set [3] (at 552 µM, the maximum soluble concentration) of 36%. The molecule further displayed a concentration giving a half-maximal response (EC50) in data set [3] above 552 µM. Further, the “Reducing power (reduction of ferric ion)” value in data set [1] is recorded as “did not significantly reduce ferric ion”. In data set [2], the “Type of AChE inhibition” value is on record as “mixed type inhibition” and the IC50 was 41.1 ± 6.1 µM. For the same molecule, in data set [4], the solubility amounted to 552 µM (≈ 235 µg/mL).

For the molecule `O=C1CC(c2ccc(Cl)cc2)C(=Cc2ccc(Cl)cc2)c2oc3cccc(O)c3c(=O)c21` (centres unmarked) [Compound 5d], in data set [2], the IC50 is above 325 µM.

Take `O=C1CC(c2ccc(O)c(O)c2)C(=Cc2ccc(O)c(O)c2)c2oc3cccc(O)c3c(=O)c21` (centres unmarked) [Compound 5e, (E)-8-Hydroxy-4-(3,4-dihydroxybenzylidene)-3-(3,4-dihydroxyphenyl)-3,4-dihydro-1H-xanthene-1,9-(2H)-dione]: in data set [3], the “Radical Scavenging Activity AE (antiradical efficiency)” value (“Radical Scavenging Activity AE” below) was determined as 0.026 and the 50% effective concentration (EC50) came to 3.79 ± 0.06 µM. Also, the “Reducing power (reduction of ferric ion)” value in data set [1] is “higher reduction capacity than BHT and similar to quercetin; also recorded: more efficient than BHT and similar to quercetin”. Besides, in data set [2], the “Type of AChE inhibition” value is on record as “almost pure competitive type inhibition” and the IC50 stood at 31 ± 0.09 µM.

For `O=C1CC(c2ccccc2Cl)/C(=C\c2ccccc2Cl)c2oc3cccc(O)c3c(=O)c21` (centres unmarked) [Compound 5f, (E)-4-(2-Chlorobenzylidene)-3-(2-chlorophenyl)-8-hydroxy-3,4-dihydro-1H-xanthene-1,9(2H)-dione], the half-maximal inhibitory concentration (IC50) in data set [2] was above 325 µM.

For `O=c1c(O)c(-c2ccc(O)c(O)c2)oc2cc(O)cc(O)c12` [Quercetin, reference compound], in data set [3], the “Radical Scavenging Activity AE” value was 0.0042 and the EC50 turned out to be 5.97 ± 0.11 µM.

Consider `Cc1c(C)c2c(c(C)c1O)CCC(C)(C(=O)O)O2` (centres unmarked) [Trolox, reference compound], for which, in data set [3], the “Radical Scavenging Activity AE” value came out at 0.011 and the concentration giving a half-maximal response (EC50) is 18.7 ± 0.65 µM.
